Data published in ChEMBL document CHEMBL1152840, “Antileukotrienic phenethylamido derivatives of arylalkanoic acids in the treatment of ulcerative colitis” (Eur J Med Chem, 2009).

Tests used:
[1] = Lipophilicity, log K by HPLC method; assay type: physicochemical
[2] = Antileukotrienic activity in rat PMNC assessed as inhibition of Ca2+ ionophore A23187-induced LTB4 production by RIA; assay type: functional
[3] = test system: Mus musculus; assay: Antiinflammatory activity in mouse assessed as inhibition of arachidonic acid-induced ear lobe edema at 200 mg/kg, po administered 1 hr before arachidonic acid challenge measured after 1 hr relative to untreated control; assay type: functional
[4] = test system: Mus musculus; assay: Antiinflammatory activity in mouse assessed as inhibition of arachidonic acid-induced ear lobe hyperemia at 200 mg/kg, po administered 1 hr before arachidonic acid challenge measured after 1 hr relative to untreated control; assay type: functional
[5] = test system: Mus musculus; assay: Antiinflammatory activity against dextrane disodium sulfate-induced ulcerative colitis in BALB/c mouse assessed as diseased animal with stool consistency at 250 mg/kg administered 1 hr before dextrane disodium sulfate challenge; assay type: functional
[6] = test system: Mus musculus; assay: Antiinflammatory activity against dextrane disodium sulfate-induced ulcerative colitis in BALB/c mouse assessed as diseased animal with rectal prolapse at 250 mg/kg administered 1 hr before dextrane disodium sulfate challenge; assay type: functional
[7] = test system: Mus musculus; assay: Antiinflammatory activity against dextrane disodium sulfate-induced ulcerative colitis in BALB/c mouse assessed as diseased animal with small intestine bleeding at 250 mg/kg administered 1 hr before dextrane disodium sulfate challenge; assay type: functional
[8] = test system: Mus musculus; assay: Antiinflammatory activity against dextrane disodium sulfate-induced ulcerative colitis in BALB/c mouse assessed as diseased animal with large intestine bleeding at 250 mg/kg administered 1 hr before dextrane disodium sulfate challenge; assay type: functional
[9] = test system: Mus musculus; assay: Antiinflammatory activity against dextrane disodium sulfate-induced ulcerative colitis in BALB/c mouse assessed as length of colon at 250 mg/kg administered 1 hr before dextrane disodium sulfate challenge; assay type: functional
[10] = test system: Rattus norvegicus; assay: Antiinflammatory activity in rat assessed as inhibition of carrageenan-induced edema at 100 mg/kg relative to untreated control; assay type: functional

Row | Compound | log K [1] | IC50 [2] | inhibition in vivo at 200 mg/kg [3] | inhibition in vivo at 200 mg/kg [4] | Activity [5] | Activity [6] | Activity [7] | Activity [8] | Activity [9] | inhibition in vivo at 100 mg/kg [10]
1 | CC(CCc1ccc(OCCCOc2ccc(CC(=O)N(C)CCc3ccccc3)cc2)cc1)C(=O)O (stereo not given) | 0.636 | 7.5 µM | 16% | 3.7% | 100% | 0% | 0% | 60% | 7.2 cm | 
2 | CC(CCc1ccc(OCCCCOc2ccc(CC(=O)N(C)CCc3ccccc3)cc2)cc1)C(=O)O (stereo not given) | 0.752 | 10 µM | 22% | 3.7% | 0% | 0% | 0% | 60% | 9.3 cm | 56%
3 | CN(CCc1ccccc1)C(=O)Cc1ccc(OCCOc2ccc(C(=O)CCC(=O)O)cc2)cc1 | -0.089 | 20 µM | 16% | 3.6% | 0% | 0% | 0% | 20% | 9.2 cm | 38%
4 | CN(CCc1ccccc1)C(=O)Cc1ccc(OCCOc2ccc(/C=C/C(=O)O)cc2)cc1 | 0.081 | 47 µM | 9.4% | 3.4% |  |  |  |  |  | 43%
5 | COc1cc(/C=C/C(=O)O)ccc1OCCOc1ccc(CC(=O)N(C)CCc2ccccc2)cc1 | -0.061 |  | 23% | 0% | 40% | 0% | 0% | 40% | 7.2 cm | 10%
6 | CN(CCc1ccccc1)C(=O)Cc1ccc(OCCCOc2ccc(/C=C/C(=O)O)cc2)cc1 | 0.336 | 8.5 µM | 21% | 3.7% |  |  |  |  |  | 13%
7 | COc1cc(/C=C/C(=O)O)ccc1OCCCOc1ccc(CC(=O)N(C)CCc2ccccc2)cc1 | 0.166 |  | 16% | 7.1% |  |  |  |  |  | 20%
8 | CN(CCc1ccccc1)C(=O)Cc1ccc(OCCOc2ccc(CCCC(=O)O)cc2)cc1 | 0.231 | 9.5 µM | 12% | 3.6% | 80% | 0% | 0% | 100% | 7.1 cm | 36%
9 | CN(CCc1ccccc1)C(=O)Cc1ccc(OCCCOc2ccc(CCCC(=O)O)cc2)cc1 | 0.451 | 12 µM | 13% | 3.4% |  |  |  |  |  | 30%
10 | CN(CCc1ccccc1)C(=O)Cc1ccc(OCCCCOc2ccc(CCCC(=O)O)cc2)cc1 | 0.6 | 16 µM | 22% | 3.7% | 60% | 0% | 0% | 100% | 7.2 cm | 38%
11 | CC(CCc1ccc(OCCOc2ccc(CC(=O)N(C)CCc3ccccc3)cc2)cc1)C(=O)O (stereo not given) | 0.38 | 19 µM | 14% | 3.7% |  |  |  |  |  | 14%
12 | CC(C(=O)O)c1ccc(OCCCOc2ccc(CC(=O)N(C)CCc3ccccc3)cc2)c(Cl)c1 (stereo not given) | 0.432 | 9.1 µM |  |  |  |  |  |  |  | 
13 | CC(C(=O)O)c1ccc(OCCCCOc2ccc(CC(=O)N(C)CCc3ccccc3)cc2)c(Cl)c1 (stereo not given) | 0.554 | 5.6 µM | 37% | 0% | 0% | 0% | 0% | 60% | 7.9 cm | 44%
14 | CN(CCc1ccccc1)C(=O)Cc1ccc(OCCCOc2ccc(CCC(=O)O)cc2)cc1 | 0.324 | 11 µM | 23% | 3.7% | 80% | 0% | 0% | 100% | 6.8 cm | 61%
15 | CC(C(=O)O)c1cccc2ccc(OCCCOc3ccc(CC(=O)NCCc4ccccc4)cc3)cc12 (stereo not given) | 0.617 | 5.7 µM | 12% | 0% |  |  |  |  |  | 30%
16 | COc1cc(CCC(=O)O)ccc1OCCCOc1ccc(CC(=O)N(C)CCc2ccccc2)cc1 | 0.175 |  | 12% | 7.4% |  |  |  |  |  | 26%
17 | COc1cc(CCC(=O)O)ccc1OCCCCOc1ccc(CC(=O)N(C)CCc2ccccc2)cc1 | 0.267 | 8.1 µM | 20% | 11% | 60% | 0% | 0% | 100% | 7 cm | 27%
18 | CC(C(=O)O)c1ccc(OCCCOc2ccc(CC(=O)N(C)CCc3ccccc3)cc2)cc1 (stereo not given) | 0.344 | 100 µM | 19% | 3.7% |  |  |  |  |  | 9.2%
19 | CC(Cc1ccc(OCCCOc2ccc(CC(=O)N(C)CCc3ccccc3)cc2)cc1)C(=O)O (stereo not given) | 0.502 | 8.2 µM |  |  |  |  |  |  |  | 
20 | CC(Cc1ccc(OCCCCOc2ccc(CC(=O)N(C)CCc3ccccc3)cc2)cc1)C(=O)O (stereo not given) | 0.604 | 10 µM | 10% | 7.4% |  |  |  |  |  | 37%
21 | CN(CCc1ccccc1)C(=O)Cc1ccc(OCCCCOc2ccc(CCC(=O)O)cc2)cc1 | 0.451 | 10 µM | 13% | 3.4% |  |  |  |  |  | 30%
22 | CC(C(=O)O)c1ccc(OCCCCOc2ccc(CC(=O)N(C)CCc3ccccc3)cc2)cc1 (stereo not given) | 0.458 | 31 µM | 19% | 0% | 100% | 0% | 20% | 100% | 7.2 cm | 63%
23 | CN(CCc1ccccc1)C(=O)Cc1ccc(OCCCCOc2ccc(/C=C/C(=O)O)cc2)cc1 | 0.462 | 8.7 µM | 22% | 6.7% |  |  |  |  |  | 20%
24 | O=C(O)c1cc(/N=N/c2ccc(S(=O)(=O)Nc3ccccn3)cc2)ccc1O [SULFASALAZINE] |  |  |  |  | 53% | 0% | 0% | 80% | 9.1 cm | 
